Results reported in US6632813B1, “6-subtituted-7-heteroquinoxalinecarboxylic acid derivatives and addition salts thereof and processes for the preparation of both” (Kyorin Pharmaceutical Co., Ltd., priority 1999, dated 2003).

Experiments:
AMPA receptor = assay: Binding experiment against AMPA receptor ([3H]-AMPA binding, crude synaptic membranes from cerebral cortex); conditions: [3H]-AMPA 5 nmol/L, potassium thiocyanate 100 mmol/L, 30 minutes at 0° C., rat cerebral cortex crude synaptic membranes; IC50 converted to Ki; read-out: [3H]-AMPA (Ki: μmol/L)
Experimental: Binding Experiment Against AMPA Receptor
To a crude synaptic membranes preparation prepared from cerebral cortex in rat were added [^3H]-AMPA (final concentration: 5 nmol/L) that binds selectively to AMPA receptors, potassium thiocyanate (final concentration: 100 mmol/L) and testing compound, and the mixture was incubated for 30 minutes at 0° C. After the reaction was stopped by suction filtration, the radioactivity on filter was measured with liquid scintillation counter. The specific binding level of [^3H]-AMPA was determined by subtracting the non-specific binding level in the presence of glutamic acid (0.1 mmol/L) from total binding level. The [^3H]-AMPA binding in the absence of testing compound was put on 100, and the concentration of compound to decrease by 50% (IC50 value) was determined, which was converted to Ki value to calculate the binding capacity of each compound to AMPA receptor (Eur. J. Pharmacol., 1993, 246, 195-204).

| SMILES | Ki (AMPA receptor) | melting point |
| --- | --- | --- |
| O=C(NCc1ccn(-c2cc3nc(C(=O)O)c(=O)[nH]c3cc2Cl)c1)Nc1ccc(C(=O)O)cc1 [Example 10, 7-(3-(((4-Carboxyphenyl)aminocarbonylamino)methyl)pyrrole-1-yl)-6-chloro-3,4-dihydro-3-oxoquinoxaline-2-carboxylic Acid] | 0.067 µmol/L | > 300 °C |
| COc1cc2[nH]c(=O)c(C(=O)O)nc2cc1-n1ccc(CNC(=O)Nc2ccc(C(=O)O)cc2)c1 [Example 11, 7-(3-(((4-Carboxyphenyl)aminocarbonylamino)methyl)pyrrole-1-yl)-3,4-dihydro-6-methoxy-3-oxoquinoxaline-2-carboxylic Acid] | 0.323 µmol/L | > 300 °C |
| Cc1cc2[nH]c(=O)c(C(=O)O)nc2cc1-n1ccc(CNC(=O)Nc2ccc(C(=O)O)cc2)c1 [Example 12, 7-(3-(((4-Carboxyphenyl)aminocarbonylamino)methyl)pyrrole-1-yl)-3,4-dihydro-6-methyl-3-oxoquinoxaline-2-carboxylic Acid] | 0.178 µmol/L | > 300 °C |
| O=C(NCc1ccn(-c2cc3nc(C(=O)O)c(=O)[nH]c3cc2F)c1)Nc1ccc(C(=O)O)cc1 [Example 13] | 0.924 µmol/L | > 300 °C |
| O=C(NCc1ccn(-c2cc3nc(C(=O)O)c(=O)[nH]c3cc2Cl)c1)Nc1ccccc1 [Example 26] |  | 171 to 173 °C (dec.) |
| CC(C)NC(=O)NCc1ccn(-c2cc3nc(C(=O)O)c(=O)[nH]c3cc2Cl)c1 [Example 37] |  | 158 to 160 °C (dec.) |
| COc1ccc(NC(=O)NCc2ccn(-c3cc4nc(C(=O)O)c(=O)[nH]c4cc3Cl)c2)cc1 [Example 38, 6-Chloro-3,4-dihydro-7-(3-(((4-methoxyphenyl)aminocarbonylamino)methyl)pyrrole-1-yl)-3-oxoquinoxaline-2-carboxylic Acid] |  | 208 to 210 °C (dec.) |
| O=C(NCc1ccn(-c2cc3nc(C(=O)O)c(=O)[nH]c3cc2Cl)c1)Nc1ccc(Cl)cc1 [Example 39, 6-Chloro-7-(3-(((4-chlorophenyl)aminocarbonylamino)methyl)pyrrole-1-yl)-3,4-dihydro-3-oxoquinoxaline-2-carboxylic Acid] |  | 193 to 195 °C (dec.) |
| O=C(NCc1ccn(-c2cc3nc(C(=O)O)c(=O)[nH]c3cc2Cl)c1)Nc1cccc2ccccc12 [Example 40, 6-Chloro-3,4-dihydro-7-(3-(((1-naphthyl)aminocarbonylamino)methyl)pyrrole-1-yl)-3-oxoquinoxaline-2-carboxylic Acid] |  | 196 to 198 °C |
| O=C(Nc1ccccc1)OCc1cn(-c2cc3nc(C(=O)O)c(=O)[nH]c3cc2Cl)cn1 [Example 47, 6-Chloro-3,4-dihydro-3-oxo-7-(4-((phenylcarbamoyloxy)methyl)imidazole-1-yl)quinoxaline-2-carboxylic Acid] |  | 199 to 201 °C (dec.) |
| O=C(Nc1ccc(C(=O)O)cc1)OCc1cn(-c2cc3nc(C(=O)O)c(=O)[nH]c3cc2Cl)cn1 [Example 53, 7-(4-(((4-Carboxyphenyl)carbamoyloxy)methyl)imidazole-1-yl)-6-chloro-3,4-dihydro-3-oxoquinoxaline-2-carboxylic Acid] |  | 246 to 248 °C (dec.) |
